Molecular target: T1, recombinant human ARG1 (Homo sapiens, UniProt P05089)
T1 sequence (P05089 1-322): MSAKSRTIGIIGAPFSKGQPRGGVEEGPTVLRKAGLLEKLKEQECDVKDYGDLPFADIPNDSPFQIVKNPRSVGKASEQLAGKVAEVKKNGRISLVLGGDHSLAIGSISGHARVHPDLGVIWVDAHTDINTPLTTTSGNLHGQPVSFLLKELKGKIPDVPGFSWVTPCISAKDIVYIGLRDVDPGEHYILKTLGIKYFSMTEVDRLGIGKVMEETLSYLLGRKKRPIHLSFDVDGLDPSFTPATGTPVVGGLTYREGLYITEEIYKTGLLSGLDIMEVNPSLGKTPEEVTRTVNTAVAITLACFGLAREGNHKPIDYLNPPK
Experiment: Arginase coupled enzymatic assay using recombinant human ARG1
Type: biochemical
Details: 2 nM ARG1, 0.8 mM L-Arginine, 10 mM sodium phosphate pH 7.4, 0.1 mM MnCl2, 37° C., absorption at 570 nm; read-out: hARG1 potency (IC50)
Experimental: Purified recombinant human ARG1 and ARG2 were prepared in 50 mM Bicine, pH 8.5, 100 μM MnCl2, 20% glycerol and 1mM DTT at a final stock concentration of 14.4 μM and 7.56 μM respectively. 2.5 nM of either ARG1 or ARG2 were incubated with varying concentrations of compounds in 10 mM sodium phosphate, pH 7.4, 0.1 mM MnCl2 and 2.5% DMSO in a total volume of 40 μl in a 384-well microplate (Corning™ #3640) at 37° C. for 1 h. The arginase enzymatic reaction was initiated by addition of 10 μl of 4 mM L-Arginine pre-incubated in 10 mM sodium phosphate, pH 7.4, and 0.1 mM MnCl2 at 37° C. into the enzyme and compound mixture, giving the final reaction conditions: 2 nM of ARG1 or ARG2 and 0.8 mM of L-Arginine in 10 mM sodium phosphate, pH 7.4, 0.1 mM MnCl2 and 2% DMSO with varying concentrations of compounds. Following 2 h incubation at 37° C., the arginase enzymatic reaction was stopped by transfer of 10 μl of reaction into 10 μl of detection mix (204 μM Amino-2-Borono-6-Hexanoic Acid, 0.25 μl Arginase Enzyme mix, 0.25 μl Arginase Developer, 0.25 μl Arginase Converter Enzyme in Arginase Assay Buffer from Arginase Activity Colorimetric Assay Kit, BioVision Inc. #K755-100) in a transparent 384-well microplate (Greiner #781801). The plate was immediately put into a plate reader (Synergy™ Neo2 Multi-Mode Microplate Reader) to monitor absorption at 570 nm at 37° C. Absorption values at 12˜20 min were used to calculate compound potency. The value of the DMSO blank (MIN inhibition=100% activity) was used as a negative control. The positive control was established by adding 8 μl of enzyme and DMSO mix into 10 μl of detection mix followed by addition of 2 μl of L-Arginine (MAX inhibition=0% activity). To calculate the percent activity, Equation 1 was used. Abs570nm is the value at a given compound concentration:
A counter-screen was performed to identify any inhibition of the coupling enzymes by the test compounds. 10 μl of 0.26 mM of urea with varying concentrations of compounds in 10 mM sodium phosphate, pH 7.4, 0.1 mM MnCl2 and 2% DMSO were added into 10 μl of detection mix in place of the arginase enzymatic reaction mix. Absorption was monitored at 570 nm as described above. The values of a no substrate blank (without urea; MAX inhibition=0% activity) and a DMSO blank (MIN inhibition=100% activity) were used as positive and negative controls respectively. […] Inactivity in the counter-screen was used to confirm that results accurately reflected IC50 values for ARG1 and ARG2.

| IC50 [nM] | SMILES |
| --- | --- |
| < 100 | CN[C@@]1(C(=O)O)c2cc(-c3ccc(CN)cc3)c(Cl)cc2C[C@@H]1CCCB(O)O |
| < 100 | CC[C@@](C)(N)c1cc2c(cc1F)C[C@H](CCCB(O)O)[C@]2(NC)C(=O)O |
| < 100 | CNCc1cc2c(cc1Cl)C[C@H](CCCB(O)O)[C@]2(NC)C(=O)O |
| < 100 | NCc1ccc2c(c1)C[C@H](CCCB(O)O)[C@]2(N)C(=O)O |
| 100 to 1000 | CN(C)[C@@]1(C(=O)O)c2cc(CN)ccc2C[C@@H]1CCCB(O)O |
| 100 to 1000 | CN[C@@]1(C(=O)O)c2cc(CN3CCC(F)(F)CC3)c(F)cc2C[C@@H]1CCCB(O)O |
| < 100 | CN[C@@]1(C(=O)O)c2cc([C@H](C)N)c(F)cc2C[C@@H]1CCCB(O)O |
| 100 to 1000 | CCN[C@@]1(C(=O)O)c2cc(OC)c(CN)cc2C[C@@H]1CCCB(O)O |
| < 100 | CN[C@@]1(C(=O)O)c2cc([C@H](C)N)c(C)cc2C[C@@H]1CCCB(O)O |
| 100 to 1000 | NCc1cccc2c1C[C@H](CCCB(O)O)[C@]2(N)C(=O)O |
| < 100 | CN[C@@]1(C(=O)O)c2cc(CN3CCCCC3)c(F)cc2C[C@@H]1CCCB(O)O |
| < 100 | CN[C@@]1(C(=O)O)c2cc(-c3ccc(CN)cc3)ccc2C[C@@H]1CCCB(O)O |
| < 100 | CNCc1cc2c(cc1F)C[C@H](CCCB(O)O)[C@]2(NC)C(=O)O |
| 100 to 1000 | CN[C@@]1(C(=O)O)c2cc(C3(C(N)=O)CCC3)c(F)cc2C[C@@H]1CCCB(O)O |
| < 100 | CN[C@@]1(C(=O)O)c2cc(CN3CCCC3)c(F)cc2C[C@@H]1CCCB(O)O |
| 100 to 1000 | NCCc1ccc2c(c1)C[C@H](CCCB(O)O)[C@]2(N)C(=O)O |
| 100 to 1000 | CN[C@@]1(C(=O)OC)c2cc(CN)c(Cl)cc2C[C@@H]1CCCB(O)O |
| 100 to 1000 | CN[C@@]1(C(=O)O)c2cc([C@H](N)C(F)(F)F)ccc2C[C@@H]1CCCB(O)O |
| < 100 | CN[C@@]1(C(=O)O)c2cc(C3(N)CC(C)(C)C3)c(F)cc2C[C@@H]1CCCB(O)O |
| 100 to 1000 | CN[C@@]1(C(=O)O)c2ccccc2C[C@@H]1CCCB(O)O |
| < 100 | CC[C@H](N)c1cc2c(cc1F)C[C@H](CCCB(O)O)[C@]2(NC)C(=O)O |

| IC50 [nM] | SMILES |
| --- | --- |
| < 100 | CN[C@@]1(C(=O)O)c2cc(CNC3CC3)c(F)cc2C[C@@H]1CCCB(O)O |
| > 1000 | N[C@@]1(C(=O)O)c2cccnc2C[C@@H]1CCCB(O)O |
| 100 to 1000 | CN[C@@]1(C(=O)O)c2cc(N)c(Cl)cc2C[C@@H]1CCCB(O)O |
| < 100 | CN[C@@]1(C(=O)O)c2cc([C@H](C)N)c(OCC(F)(F)F)cc2C[C@@H]1CCCB(O)O |
| < 100 | CN[C@@]1(C(=O)O)c2cc([C@@H](N)C3CC3)c(F)cc2C[C@@H]1CCCB(O)O |
| < 100 | CN[C@@]1(C(=O)O)c2cc(C3(N)CCC3)ccc2C[C@@H]1CCCB(O)O |
| < 100 | CN[C@@]1(C(=O)O)c2cc(C3(N)CC3)c(F)cc2C[C@@H]1CCCB(O)O |
| < 100 | CN[C@@]1(C(=O)O)c2cc([C@H](C)N)c(Cl)cc2C[C@@H]1CCCB(O)O |
| 100 to 1000 | CN[C@@]1(C(=O)O)c2cc(Cc3ccccn3)c(Cl)cc2C[C@@H]1CCCB(O)O |
| < 100 | CC[C@](C)(N)c1cc2c(cc1F)C[C@H](CCCB(O)O)[C@]2(NC)C(=O)O |
| < 100 | CN[C@@]1(C(=O)O)c2cc(C3CCNCC3)c(F)cc2C[C@@H]1CCCB(O)O |
| 100 to 1000 | CN[C@@]1(C(=O)O)c2cc(-c3ccccc3CO)c(F)cc2C[C@@H]1CCCB(O)O |
| < 100 | CN[C@@]1(C(=O)O)c2cc([C@@H](C)N)ccc2C[C@@H]1CCCB(O)O |
| < 100 | NCc1ccc2c(c1)[C@@](N)(C(=O)O)[C@@H](CCCB(O)O)C2 |
| < 100 | CN[C@@]1(C(=O)O)c2cc([C@H](N)C3CC3)c(F)cc2C[C@@H]1CCCB(O)O |
| > 1000 | C[C@]1(CCCB(O)O)Cc2ccccc2[C@@]1(N)C(=O)O |
| < 100 | CN[C@@]1(C(=O)O)c2cc(C3(N)CCC3)c(F)cc2C[C@@H]1CCCB(O)O |
| < 100 | NC1(c2cc3c(cc2F)C[C@H](CCCB(O)O)[C@]3(N)C(=O)O)CCC1 |
| < 100 | CN[C@@]1(C(=O)O)c2cc(OCCN)ccc2C[C@@H]1CCCB(O)O |
| 100 to 1000 | CN[C@@]1(C(=O)O)c2cc([C@@H](N)C(F)(F)F)ccc2C[C@@H]1CCCB(O)O |

More lines, now with the values behind:

| SMILES | IC50 [nM] |
| --- | --- |
| CN[C@@]1(C(=O)O)c2cc(O[C@@H]3CCC[C@H]3N)c(F)cc2C[C@@H]1CCCB(O)O | < 100 |
| CN[C@@]1(C(=O)O)c2cc(C3(N)CCCC3)c(F)cc2C[C@@H]1CCCB(O)O | < 100 |
| CN[C@@]1(C(=O)O)c2cc(C(C)(C)N)c(F)cc2C[C@@H]1CCCB(O)O | < 100 |
| CN[C@@]1(C(=O)O)c2cc(N3CC[C@H](O)C3)c(F)cc2C[C@@H]1CCCB(O)O | 100 to 1000 |
| NCCc1cccc2c1C[C@H](CCCB(O)O)[C@]2(N)C(=O)O | 100 to 1000 |
| NCCc1ccc2c(c1)[C@@](N)(C(=O)O)[C@@H](CCCB(O)O)C2 | < 100 |
| CN[C@@]1(C(=O)O)c2cc(-c3cc(F)ccc3CN)c(F)cc2C[C@@H]1CCCB(O)O | < 100 |
| CN[C@@]1(C(=O)O)c2cc(CNC(C)=O)ccc2C[C@@H]1CCCB(O)O | 100 to 1000 |
| CNCc1cccc2c1C[C@H](CCCB(O)O)[C@]2(NC)C(=O)O | 100 to 1000 |
| CN[C@@]1(C(=O)O)c2cc([C@H](N)C3CC3)c(Cl)cc2C[C@@H]1CCCB(O)O | < 100 |
| CCC(N)(CC)c1cc2c(cc1F)C[C@H](CCCB(O)O)[C@]2(NC)C(=O)O | < 100 |
| CN[C@@]1(C(=O)O)c2cc([C@H](C)N)ccc2C[C@@H]1CCCB(O)O | < 100 |
| CN[C@@]1(C(=O)O)c2cc([C@H](C)N)c(OC)cc2C[C@@H]1CCCB(O)O | < 100 |
| N[C@@]1(C(=O)O)c2cc(Cl)ccc2C[C@@H]1CCCB(O)O | 100 to 1000 |
| CN[C@@]1(C(=O)O)c2cc(CNCC(F)(F)F)c(F)cc2C[C@@H]1CCCB(O)O | 100 to 1000 |
| CN[C@@]1(C(=O)O)c2cc(CNC(=O)[C@H](C)N)ccc2C[C@@H]1CCCB(O)O | < 100 |
| CN[C@@]1(C(=O)O)c2cc(C3(NC(=O)[C@H](C)N)CCC3)c(F)cc2C[C@@H]1CCCB(O)O | 100 to 1000 |

| SMILES | IC50 [nM] |
| --- | --- |
| CC[C@@H](N)c1cc2c(cc1F)C[C@H](CCCB(O)O)[C@]2(NC)C(=O)O | < 100 |
| CN[C@@]1(C(=O)O)c2ccc(CN)cc2C[C@@H]1CCCB(O)O | < 100 |
| CN[C@@]1(C(=O)O)c2cc([C@@H](C)N)c(F)cc2C[C@@H]1CCCB(O)O | < 100 |
| CN[C@@]1(C(=O)O)c2cc(CN(C)C)c(Cl)cc2C[C@@H]1CCCB(O)O | < 100 |
| CN[C@@]1(C(=O)O)c2cc(-c3ncccc3N)c(F)cc2C[C@@H]1CCCB(O)O | 100 to 1000 |
| CN[C@@]1(C(=O)O)c2cc(C3(CNC(=O)[C@H](C)N)CCC3)c(F)cc2C[C@@H]1CCCB(O)O | < 100 |
| CN[C@@]1(C(=O)O)c2cc(CNC(C)C)c(F)cc2C[C@@H]1CCCB(O)O | < 100 |
| CN[C@@]1(C(=O)O)c2cc(C3(N)CCC3)c(Cl)cc2C[C@@H]1CCCB(O)O | < 100 |
| CN[C@@]1(C(=O)O)c2cc(CNC3CCCC3)c(F)cc2C[C@@H]1CCCB(O)O | < 100 |
| CC[C@@H](NC)c1cc2c(cc1F)C[C@H](CCCB(O)O)[C@]2(NC)C(=O)O | < 100 |
| CC[C@@H](N)c1cc2c(cc1Cl)C[C@H](CCCB(O)O)[C@]2(NC)C(=O)O | < 100 |
| CC[C@H](NC)c1cc2c(cc1F)C[C@H](CCCB(O)O)[C@]2(NC)C(=O)O | < 100 |
| CN[C@@]1(C(=O)O)c2cc(-c3cccc(F)c3C(C)(C)N)c(F)cc2C[C@@H]1CCCB(O)O | < 100 |
| CN[C@@]1(C(=O)O)c2cc(-c3ccccc3CCN)c(F)cc2C[C@@H]1CCCB(O)O | < 100 |
| CC[C@H](N)c1cc2c(cc1Cl)C[C@H](CCCB(O)O)[C@]2(NC)C(=O)O | < 100 |
| N[C@@]1(C(=O)O)c2cccc(-c3cn[nH]c3)c2C[C@@H]1CCCB(O)O | > 1000 |

From patent publication US12226425B2, “Inhibitors of ARG1 and/or ARG2” (Arcus Biosciences, Inc., priority 2018, dated 2025)
